Measured values: ChEMBL document CHEMBL2321649 (Bioorg Med Chem, 2013)

How the values were obtained:
[1] = Antivascular activity against human EAhy926 cells assessed as rounding up morphology after 2 hrs by microscopic analysis; assay type: functional; conditions: EA.hy 926, 2 h, read-out: MEC
B16 = experiment: Cytotoxicity against mouse B16 cells after 48 hrs by MTT assay; assay type: functional, cell-based; conditions: B16, 48 h
Tubulin = experiment: Inhibition of tubulin (unknown origin) assessed as inhibition of GTP-induced polymerization incubated for 45 mins prior to GTP-addition measured after 2 hrs by DAPI-staining based fluorimetric analysis; assay type: protein-complex assay, Homo sapiens

Row | SMILES | IC50 (Tubulin) | minimal effective concentration [1] | IC50 (B16)
1 | COc1ccc(/C=C\c2cc(OC)c(OC)c(OC)c2)cc1O [COMBRETASTATIN A4] | – | 0.006 µM | 0.003 µM
2 | COc1ccc(C2CC2c2cc(OC)c(OC)c(OC)c2)cc1[N+](=O)[O-] (racemic) | 26.3 µM | 3.13 µM | 15.4 µM
3 | COc1cc([C@H]2C[C@H]2/C=C/c2ccccc2)cc(OC)c1OC | 4.5 µM | 3.13 µM | 2.74 µM
4 | COc1ccc([C@H]2C[C@H]2c2cc(OC)c(OC)c(OC)c2)cc1O | 6.8 µM | 0.5 µM | 0.52 µM

Continued by falling IC50 (Tubulin), values first:

Row | IC50 (Tubulin) | SMILES | minimal effective concentration [1] | IC50 (B16)
5 | 2.8 µM | COc1ccc(C2CC2c2cc(OC)c(OC)c(OC)c2)cc1N (racemic) | 0.12 µM | 0.29 µM
6 | 1.8 µM | COc1cc(C2CC2/C=C/c2ccccc2)cc(OC)c1OC (racemic) | 0.5 µM | 0.62 µM
7 | 1.3 µM | COc1cc([C@@H]2C[C@@H]2/C=C/c2ccccc2)cc(OC)c1OC | 0.5 µM | 0.57 µM
8 | 1 µM | COc1ccc(C2CC2c2cc(OC)c(OC)c(OC)c2)cc1O (racemic) | 0.12 µM | 0.32 µM
9 | 0.3 µM | COc1ccc([C@@H]2C[C@@H]2c2cc(OC)c(OC)c(OC)c2)cc1O | 0.12 µM | 0.3 µM
